Where a SMILES comes first, the peptide text is derived from it. [ ]: non-standard residue; d: D form. dPip = O=C(O)[C@H]1CCCCN1
What was measured:
[1] = target: Prothrombin (Homo sapiens) (UniProt P00734); assay: Association constant for thrombin
[2] = Ratio of association constant of thrombin and plasmin
[3] = Ratio of association constant of thrombin and tissue-type plasminogen activator
[4] = target: Thrombin & trypsin (Homo sapiens) (UniProt P00734+P07477+P07478+P35030); assay: Ratio of association constant of thrombin and trypsin; assay type: protein assay

Structure (SMILES) | K ass [1] [L/µM] | Ratio [2] | Ratio [3] | Ratio [4]
CC(C)CN(CC(=O)N[C@H](C=O)CCCN=C(N)N)C(=O)[C@H]1CCCCN1 | 24 | 480 | 24000 | 15
CN(CC(=O)N[C@H](C=O)CCCN=C(N)N)C(=O)[C@H]1CCCCN1 | 22 | 730 | 5500 | 24
CC(C)CCN(CC(=O)N[C@H](C=O)CCCN=C(N)N)C(=O)[C@H]1CCCCN1 | 16 | 270 | 4000 | 2.7
CC(C)N(CC(=O)N[C@H](C=O)CCCN=C(N)N)C(=O)[C@H]1CCCCN1 | 10 | 10000 | 10000 | 20
N=C(N)NCCC[C@@H](C=O)NC(=O)[C@@H]1CCCN1C(=O)[C@H]1CCCCN1 (H-[dPip]-Pro-Arg-aldehyde) | 200 | 220 | 6700 | 3.3
CCCN(CC(=O)N[C@H](C=O)CCCN=C(N)N)C(=O)[C@H]1CCCCN1 | 34 | 680 | 8500 | 14

The remaining lines, values ahead:

K ass [1] [L/µM] | Ratio [2] | Ratio [3] | Ratio [4] | Structure (SMILES)
5.4 | 16 | 770 | 0.9 | N=C(N)NCCC[C@@H](C=O)NC(=O)CN(CCC1CCCCC1)C(=O)[C@H]1CCCCN1
33 | 3300 | 6600 | 25 | CCN(CC(=O)N[C@H](C=O)CCCN=C(N)N)C(=O)[C@H]1CCCCN1
24 | 200 | 4000 | 4 | N=C(N)NCCC[C@@H](C=O)NC(=O)CN(CCCc1ccccc1)C(=O)[C@H]1CCCCN1
10 | 77 | 1000 | 1 | N=C(N)NCCC[C@@H](C=O)NC(=O)CN(Cc1ccccc1)C(=O)[C@H]1CCCCN1
16 | 400 | 4000 | 15 | N=C(N)NCCC[C@@H](C=O)NC(=O)CN(C(=O)[C@H]1CCCCN1)c1ccccc1
87 | 200 | 14500 | 32 | N=C(N)NCCC[C@@H](C=O)NC(=O)CN(CCc1ccccc1)C(=O)[C@H]1CCCCN1

— ChEMBL document CHEMBL1128061, “N-substituted glycines as replacements for proline in tripeptide aldehyde thrombin inhibitors” (Bioorg Med Chem Lett, 1995)
